From patent publication US20090069237A1, “METHODS AND COMPOSITIONS FOR TREATING CONDITIONS” (priority 2007, published 2009)
Peptide text beside a SMILES is read from it.

Key:
[1] = rat, in vivo
Excerpt: Pain is basically managed by two classes of drugs.

[2] = assay type: physicochemical
Method: The test article was SEQ ID NO: 1, a white powder, which was delivered in 0.9% saline. The test article formulations were prepared on the day of study and kept at room temperature until dosing. 100 mg/kg at 1 mL/kg=100 mg/mL 1.4 mL of saline added to 141.5 mg of test article, soluble.

[3] = tested on: Pseudomonas syringae pv tomato, DC3000; test: Arabidopsis inoculated with virulent pathogen Pst DC3000, disease symptoms; assay type: in vivo, Arabidopsis ecotype Columbia (Col-0); conditions: 20 μl salicylic acid 1 mM and 20 μl SEQ ID NO: 15 applied together to the leaves
Method: Seeds of Arabidopsis ecotype Columbia (Col-0) were planted in potting soil. Plants were cultivated in a growth chamber with 10-h d (200 μmol m^−2s^−1 at 22° C.) and 14-h night (18° C.) cycles and 80% RH. Once a week plants were supplied with water and modified one-half strength Hoagland nutrient solution: 2 mM KNO 5 mM Ca(NO3)2 and trace elements, pH 7.
A virulent plant pathogen, Pst Pseudomonas syringae pv tomato, DC3000 was grown at 28° C. on King's medium B containing 40 mg/L tetracycline. Plants were inoculated with 1×10^7 cfu/ml of the pathogen in 0.01% Silwet L77 (v/v) (a surfactant) and distilled water 5 weeks after sowing. The bacterial suspension or a control solution (0.01% Silwet L77 in water) was then sprayed on the plant once.
Disease symptoms in Arabidopsis are water-soaked, spreading lesions, sometimes surrounded by chlorotic margin that eventually lead to yield loss and plant death.
To test the efficacy of SEQ ID NO: 15, some healthy and some disease plants were sprayed with salicylic acid in 0.01%. Silwet L77; some healthy and some disease plants were sprayed with SEQ ID NO: 15 in 0.01%. Silwet L77, and some healthy and some disease plants were sprayed with salicylic acid in combination with SEQ ID NO: 15 in 0.01%. Silwet L77. A control group of some healthy and some disease plants were sprayed with water in 0.01%. Silwet L77. […]

[4] = tested on: Sauromatum guttatum appendix; test: Heat production by Sauromatum guttatum appendix sections, thermocouple recording; conditions: second experiment, up to 50 μM, data not shown
Method: In one example, using Sauromatum guttatum as the experimental module, on the day of inflorescence-opening, the Sauromatum appendix (a 20-40 cm-long, slender organ) becomes warm reaching a 32° C. temperature (Skubatz et al., 1991, Plant Physiol. 95:1084-1088). The heat generated by the appendix is generated by the mitochondria. This mitochondrial activity can be triggered by the addition of phenolic compounds, including but not limited to, salicylic acid, aspirin, and 2,6-dihydroxybenzoic acid. Test agents can be applied to the plant and the plant's temperature may be monitored in vivo.
FIG. 4 illustrates modulation of heat generated by aspirin (ASA) in Sauromatum guttatum appendix in the presence of various opioid peptides and the Alzheimer's peptide, Aβ 1-42. One day before heat-production, sections of the appendix were placed in different aqueous solutions containing ASA with or without an opioid peptide. […] Temperature was recorded with thermocouples attached to the section every 5 min. […]
FIG. 5 illustrates modulation of heat generated by salicylic acid (SA) in the presence of human opioid peptides (β-Endorphin, SEQ ID NO: 19 and Neuropeptide AF, SEQ ID NO: 44) and, the Alzheimer's peptide, Aβ 1-42, SEQ ID NO: 49, and, a plant virulent bacterial pathogen (Pst DC3000). […] Temperature was recorded with thermocouples attached to the sections every 5 min. […]

**Q.** Which “effect on brain function” value [1] does the source give for `CC(C)C[C@H](NC(=O)[C@@H](N)Cc1ccccc1)C(=O)N1CCC[C@H]1C(=O)N[C@@H](CO)C(=O)O` [SEQ ID NO: 1, Phe-Leu-Pro-Ser] (H-FLPS-OH; N-terminus and C-terminus assumed) here?
**A.** Its value is “does not adversely affect brain function”.

**Q.** What about the feeding behavior [1] of the same compound?
**A.** Its feeding behavior is “did not invoke an abnormal feeding behavior”.

**Q.** What about the solubility in saline [2] of the same compound?
**A.** Its solubility in saline is “soluble”.

**Q.** For `O=C(O)c1ccccc1O` [salicylic acid], which “systemic resistance to the virulent bacteria” value [3] is on record?
**A.** Its value is “enough to trigger systemic resistance”.

**Q.** For FLPSEFGVDVDR [SEQ ID NO: 2], which “heat generation by the peptide” value [4] is on record?
**A.** Its value is “did not generate heat”.

**Q.** Which “systemic resistance to the virulent bacteria” value [3] does the source give for YGGFL [SEQ ID NO: 15] here?
**A.** Its value is “enough to trigger systemic resistance”.
